Data published in article PMC12810351, “Structure-effect relationship of phenolic compounds on α-amylase inhibition studied by isothermal titration calorimetry” (Current Research in Food Science, 2025).
Read-outs that look alike come from different tables or passages of the source.

Key:
α-amylase [1] = target: α-amylase; design: method as in Kaeswurm et al. (2019); settings: substrate GalG2CNP, CNP UV/Vis, ref Kaeswurm et al. (2019), cited from earlier work
[2] = target: T1, porcine pancreatic α-amylase (Sus scrofa, UniProt P00690); assay: starch hydrolysis by α-amylase monitored by isothermal titration calorimetry (ITC); format: biochemical; settings: for remaining activity at 25 µM: 25 μM EGCG, relative to control
T1 sequence (P00690 16-511): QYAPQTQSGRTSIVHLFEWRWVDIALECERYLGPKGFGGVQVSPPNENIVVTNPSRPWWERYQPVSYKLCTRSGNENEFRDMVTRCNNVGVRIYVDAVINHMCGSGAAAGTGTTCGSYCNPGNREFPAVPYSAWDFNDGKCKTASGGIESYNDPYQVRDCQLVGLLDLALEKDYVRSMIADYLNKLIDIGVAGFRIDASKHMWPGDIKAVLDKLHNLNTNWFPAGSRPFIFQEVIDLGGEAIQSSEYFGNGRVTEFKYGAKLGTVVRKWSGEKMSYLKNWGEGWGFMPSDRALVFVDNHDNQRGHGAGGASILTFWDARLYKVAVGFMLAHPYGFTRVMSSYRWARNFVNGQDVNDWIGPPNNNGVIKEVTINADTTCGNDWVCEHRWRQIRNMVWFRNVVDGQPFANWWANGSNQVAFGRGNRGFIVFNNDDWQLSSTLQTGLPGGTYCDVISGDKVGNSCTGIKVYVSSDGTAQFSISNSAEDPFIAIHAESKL
Experimental: The amylase stock solution was diluted each day and stored during the day at 4 °C.
The experiments were conducted using an Affinity ITC LV instrument with a cell volume of 182 μL (TA Instruments, Eschborn, Germany). […] These controls were conducted to determine the optimal injection volume to achieve maximal velocity (vmax) (S11). […] Enzyme kinetic constants were determined at 310 K.
The heat released during starch conversion was continuously monitored, with calculations performed using Microsoft Excel® software. The enzymatic rate (v) is directly proportional to the measured thermal power (eq (1)).(1) v=dP/dt=1/Vcell·ΔRHapp·dQ/dt
The reaction enthalpy ( ΔRHapp ) is determined by integrating the heat peak over its entire duration, divided by the number of substrate molecules converted:(2) ΔRHapp=∫t=0∞dQ/dtdt/nS
(dQ/dt)max [%], ΔRHapp [%] und vmax [%] are calculated in relation to daily control.
The substrate concentration at time t ([S]t) is calculated according to eq (3).(3) [S]t=∫t∞dQ/dtdt/∫0∞dQ/dtdt·[S]t=0
Therefore, the thermogram contains all the required data for calculating inhibition constants. The maximal conversion rate vmax and the Michaelis-Menten constant Km are determined from control experiments conducted in the absence of an inhibitor. In the presence of an inhibitor [I] the apparent values of vmaxapp and Kmapp are obtained. Competitive inhibition (Kic, eq (5)) is due to the formation of an enzyme-inhibitor complex (EI), whereas uncompetitive inhibition (Kiu, eq (5)) occurs when an inhibitor binds to a […]:(5) Kic=vmaxapp/Kmapp·[I]/(vmax/Km)−(vmaxapp/Kmapp)Kiu=vmaxapp·[I]/vmax−vmaxapp
The IC50 value, a key pharmacological metric, is used to compare the potency of inhibitors. […] The conversion rate (v0) was calculated from the thermogram according to eq (1), and subsequently plotted against the […]

α-amylase [3] = target: α-amylase; design: method as in Nyambe-Silavwe et al. (2015); settings: substrate amylose, amylopectin, DNS UV/Vis; ref Nyambe-Silavwe et al. (2015); cited from earlier work

For O=C(O[C@@H]1Cc2c(O)cc(O)cc2O[C@@H]1c1cc(O)c(O)c(O)c1)c1cc(O)c(O)c(O)c1 [EGCG, epigallocatechin gallate], the IC50 (α-amylase [1]) is given as 58 µM, the Ki (α-amylase [1]; read-out: Kic) is given as 124 µM and the Ki (α-amylase [1]; read-out: Kiu) is given as 58 µM. The remaining activity at 25 µM ([2]; read-out: (dQ/dt)max [%]) was 38 ± 4%, the remaining activity at 25 µM ([2]; read-out: vmax [%]) was 49 ± 2% and the “reversibility of inhibition (from ΔRHapp)” value ([2]; 100 μM polyphenol (EGCG 25 μM)) was “irreversible aggregation”. For the same compound, the “α (Kic/Kiu)” value ([2]; calculated based on the mass concentration) was 0.73 ± 0.01, the Ki ([2]; calculated based on the mass concentration, read-out: Kic [g/L] (converted)) was 21.8 µM and the Ki ([2]; calculated based on the mass concentration, read-out: Kiu [g/L] (converted)) was 21.8 µM. For the same compound, the Ki ([2]; competitive inhibition constant, substrate starch, ITC, 100 μM polyphenol (EGCG 25 μM), read-out: Kic) was 19 ± 2 µM, the “inhibition mechanism suggested by Kic/Kiu ratios” value ([2]; polyphenol standards) was “preferentially bind to the enzyme” and the inhibition type ([2]; substrate starch, ITC) was “mixed”. The IC50 ([2]; substrate starch, ITC, calculated by eq (6), substrate concentration of 1 M (IC50 equivalent to Kiu), read-out: IC50*) was 25 ± 2 µM, the Ki ([2]; uncompetitive inhibition constant, substrate starch, ITC, 100 μM polyphenol (EGCG 25 μM), read-out: Kiu) was 26 ± 2 µM and the IC50 (α-amylase [3]) was 5.3 to 60 µM.
